Measured values reported in patent US3966930A, “Phenothiazine derivatives, compositions thereof and methods of preparation thereof” (Kefalas A/S, priority 1973, dated 1976).
Read-outs that look alike come from different tables or passages of the source.

System: methylphenidate
Test: Methylphenidate antagonism in mice (rapid screening test for neuroleptic drugs)
Format: in vivo, NMRI male mice
Conditions: Mus musculus, ip
Protocol: 40 grams of 4-(2-hydroxyethyl)piperidine were then added, and the mixture heated for 17 hours at 90° Centigrade. The mixture was cooled, poured into water, extracted with 500 milliliters of ether, the ether extract washed five times with water and dried over anhydrous magnesium sulphate. The oxalate of 2-trifluoromethyl-7-fluoro-10-(3'-(4-(2-hydroxyethyl)piperidin-1-yl)propyl)phenothiazine was precipitated from acetone-/ether (1:1) and melts at 76°-80° Centigrade. The pharmacological testing of the compounds of the present invention consisted of a standard and reliable, published test showing the neuroleptic activity of the compounds in that they antagonize central nervous stimulating compounds such as amphetamine and methylphenidate. […] 1971, 29, suppl. 4, 44.
The test may briefly be described as follows:
As animals were used NMRI male mice weighing 18-25 grams. 3 × 2 mice are used for each dose level.
2, 6 or 24 hours after i.p.injection of test substance, methylphenidate, 60 mg/kg, is injected s.c. After administration of methylphenidate the mice are placed in the observation cages, 2 in each cage, where they remain for 2, 6 or 24 hours. The cages are placed on corrugated paper, the corrugations facing upwards. It is examined whether or not the mice have been biting the corrugated paper. […] If one or more of the control pairs have also not been biting the corrugated paper, the test has to be repeated on a new set of mice. The following novel substances of Formula I were tested: […]
As reference substances were used the corresponding known phenothiazines having no fluorine substitution at position 7, namely fluphenazine, perphenazine, thioproperazine, acetophenazine and chlorpromazine respectively.

[1] = 2 h after i.p. injection of test substance, methylphenidate 60 mg/kg s.c., mice, read-out: Methylphenidate Antagonism ED50, 2h
[2] = 6 h after i.p. injection of test substance, methylphenidate 60 mg/kg s.c., mice, read-out: Methylphenidate Antagonism ED50, 6h
[3] = 24 h after i.p. injection of test substance, methylphenidate 60 mg/kg s.c., mice, read-out: Methylphenidate Antagonism ED50, 24h
[4] = 2 h, read-out: Methylphenidate Antagonism ED50, 2h
[5] = 6 h, read-out: Methylphenidate Antagonism ED50, 6h
[6] = 24 h, read-out: Methylphenidate Antagonism ED50, 24h

Compound	ED50 [1] [mg/kg]	ED50 [2] [mg/kg]	ED50 [3] [mg/kg]	ED50 [4] [mg/kg]	ED50 [5] [mg/kg]	ED50 [6] [mg/kg]
CC(=O)c1ccc2c(c1)N(CCCN1CCN(CCO)CC1)c1ccccc1S2 [Acetophenazine]	0.2	4.4	> 10			
OCCN1CCN(CCCN2c3ccc(F)cc3Sc3ccc(C(F)(F)F)cc32)CC1 [Lu 10-116, 2-trifluoromethyl-7-fluoro-10-(3'-(4-(2-hydroxyethyl)-piperazine-1-yl)propyl)phenothiazine]	0.11	0.01	0.08			
CN1CCN(CCCN2c3ccccc3Sc3ccc(S(=O)(=O)N(C)C)cc32)CC1 [Thioproperazine]	0.28	1.2	> 5			
OCCN1CCN(CCCN2c3ccc(F)cc3Sc3ccc(Cl)cc32)CC1 [Lu 10-125, 2-chloro-7-fluoro-10-(3'-(4-(2-hydroxyethyl)-1-piperazinyl)propyl)-phenothiazine]	0.06	0.05	> 5			
CN(C)CCCN1c2ccc(F)cc2Sc2ccc(Cl)cc21 [Lu 10-152, 2-chloro-7-fluoro-10-(3'-dimethylaminopropyl)-phenothiazine]	2	2.1	> 20			
OCCN1CCN(CCCN2c3ccccc3Sc3ccc(Cl)cc32)CC1 [Perphenazine]				0.08	0.55	> 5
CN(C)CCCN1c2ccccc2Sc2ccc(Cl)cc21 [Chlorpromazine]				3.3	> 20	> 20
CN1CCN(CCCN2c3ccc(F)cc3Sc3ccc(S(=O)(=O)N(C)C)cc32)CC1 [Lu 11-075, 2-dimethylsulfamoyl-7-fluoro-10-(3'-(4-methyl-piperazin-1-yl)-propyl)phenothiazine]	0.7	0.44	> 5			
OCCN1CCN(CCCN2c3ccccc3Sc3ccc(C(F)(F)F)cc32)CC1 [Fluphenazine]	0.08	0.03	> 2.5			
CC(=O)c1ccc2c(c1)N(CCCN1CCN(CCO)CC1)c1ccc(F)cc1S2 [Lu 11-087, 2-acetyl-7-fluoro-10-(3'-(4-(2-hydroxyethyl)-1-piperazinyl)-propyl)phenothiazine]	0.06	0.07	> 1.25			
